Measured values published in patent publication US10770169B2, “Method of providing a treatment to a subject based on a dynamic pathway map” (THE REGENTS OF THE UNIVERSITY OF CALIFORNIA, priority 2010, dated 2020).

Legend:
[1] = test system: panel of 55 breast cancer cell lines; experiment: Cell growth inhibition assay (Cell Titer Glo, 72 h, 9 doses; GI50, TGI, LC50); format: cell-based, human
[2] = test system: luminal, basal, claudin-low and ERBB2AMP breast cancer cell lines; experiment: Associations of clinically relevant subtypes and response (non-parametric ANOVA or t-test on GI50 ranks); format: cell-based, human
From the text: A central premise of this study is that associations between responses and molecular subtypes observed in preclinical cell line analyses will be recapitulated in the clinic in instances where the predictive molecular features in the cell lines are mirrored in human tumors. We established response-subtype associations by using non-parametric ANOVAs to compare […] values across transcriptional and genomics subtypes.
Differences between GI50s of the groups were compared with a non-parametric ANOVA or t-test, as appropriate, on the ranks. We combined the p-values for the three sets of tests and used false discovery rate (FDR) to correct for multiple testing. For the three-sample test, we performed a post-hoc analysis on the compounds with a significant class effect by comparing each group to all others to determine which group was most sensitive. The p-values for the post-hoc test were FDR-corrected together. In all cases, FDR p<0.20 was deemed significant. […] Analyses were performed in R.

[3] = BT20 cell line, censored GI50 values, value is the negative log10 of mol/L
[4] = BT474 cell line, censored GI50 values, value is the negative log10 of mol/L
[5] = BT483 cell line, censored GI50 values, value is the negative log10 of mol/L
[6] = HCC38 cell line, censored GI50 values, value is the negative log10 of mol/L
[7] = HCC1187 cell line, censored GI50 values, value is the negative log10 of mol/L
[8] = HCC2185 cell line, censored GI50 values, value is the negative log10 of mol/L
[9] = SUM52PE cell line, censored GI50 values, value is the negative log10 of mol/L
[10] = SUM149PT cell line, censored GI50 values, value is the negative log10 of mol/L
[11] = UACC812 cell line, censored GI50 values, value is the negative log10 of mol/L
[12] = ZR75B cell line, censored GI50 values, value is the negative log10 of mol/L
[13] = cell line BT20, value is the negative log10 of mol/L
[14] = cell line BT474, value is the negative log10 of mol/L
[15] = cell line BT483, value is the negative log10 of mol/L
[16] = cell line CAMA1, value is the negative log10 of mol/L
[17] = cell line HCC38, value is the negative log10 of mol/L
[18] = cell line HCC70, value is the negative log10 of mol/L
[19] = cell line HCC1143, value is the negative log10 of mol/L
[20] = cell line HCC1187, value is the negative log10 of mol/L
[21] = cell line HCC1395, value is the negative log10 of mol/L
[22] = cell line HCC1428, value is the negative log10 of mol/L
[23] = cell line HCC1500, value is the negative log10 of mol/L
[24] = cell line HCC1806, value is the negative log10 of mol/L
[25] = cell line HCC1937, value is the negative log10 of mol/L
[26] = cell line HCC1954, value is the negative log10 of mol/L
[27] = cell line HCC2185, value is the negative log10 of mol/L
[28] = cell line HCC3153, value is the negative log10 of mol/L

SMILES: O=S(=O)(CC1CS1)c1ccc(Oc2ccccc2)cc1 (stereo not drawn) [SB-3CT]
- GI50 [1, 3]: 4.42
- GI50 [1, 4]: 4.99
- GI50 [1, 5]: 4.59
- GI50 [1, 6]: 4.62
- GI50 [1, 7]: 4.83
- GI50 [1, 8]: 4.21
- GI50 ([1]; MDAMB361 cell line, censored GI50 values, value is the negative log10 of mol/L): 4.00
- GI50 ([1]; MDAMB415 cell line, censored GI50 values, value is the negative log10 of mol/L): 4.00
- GI50 [1, 9]: 4.22
- GI50 [1, 10]: 4.53
- GI50 ([1]; SUM159PT cell line, censored GI50 values, value is the negative log10 of mol/L): 4.85
- GI50 ([1]; SUM185PE cell line, censored GI50 values, value is the negative log10 of mol/L): 4.76
- GI50 [1, 11]: 4.28
- GI50 [1, 12]: 4.62
- GI50 ([1]; ZR751 cell line, censored GI50 values, value is the negative log10 of mol/L): 4.00
- GI50 ([1]; cell line AU565, value is the negative log10 of mol/L): 4.00
- GI50 [1, 13]: 4.42
- GI50 [1, 14]: 4.99
- GI50 [1, 15]: 4.59
- GI50 [1, 16]: 4.00
- GI50 [1, 17]: 4.62
- GI50 [1, 18]: 3.88
- GI50 [1, 19]: 4.00
- GI50 [1, 20]: 4.83
- GI50 [1, 21]: 3.78
- GI50 ([1]; cell line HCC1419, value is the negative log10 of mol/L): 3.78
- GI50 [1, 22]: 4.18
- GI50 [1, 23]: 3.78
- GI50 [1, 24]: 4.00
- GI50 [1, 25]: 4.00
- GI50 [1, 26]: 4.00
- GI50 [1, 27]: 4.21
- GI50 [1, 28]: 4.00
- GI50 ([1]; cell line MCF7, value is the negative log10 of mol/L): 4.00

SMILES: C[C@@H](Oc1cc(-n2cnc3ccc(CN4CCN(C)CC4)cc32)sc1C(N)=O)c1ccccc1C(F)(F)F [GSK461364]
- subtype-specific response (sensitivity by transcriptional subtype) ([2]; GI50 across subtypes): more active against basal and claudin-low cell lines
- Subtype specificity ([2]; Table 6, most sensitive subtype, FDR p<0.20): Basal + Claudin-low

SMILES: N#Cc1c(NC(=O)c2cccc3ccccc23)sc2c1CCCC2 [TCS JNK 5a]
- GI50 [1, 3]: 5.97
- GI50 [1, 4]: 4.17
- GI50 [1, 5]: 5.94
- GI50 ([1]; CAMA1 cell line, censored GI50 values, value is the negative log10 of mol/L): 5.48
- GI50 [1, 6]: 5.32
- GI50 ([1]; HCC70 cell line, censored GI50 values, value is the negative log10 of mol/L): 5.64
- GI50 ([1]; HCC1143 cell line, censored GI50 values, value is the negative log10 of mol/L): 4.21
- GI50 [1, 7]: 6.08
- GI50 ([1]; HCC1395 cell line, censored GI50 values, value is the negative log10 of mol/L): 6.21
- GI50 ([1]; HCC1428 cell line, censored GI50 values, value is the negative log10 of mol/L): 4.61
- GI50 ([1]; HCC1500 cell line, censored GI50 values, value is the negative log10 of mol/L): 5.31
- GI50 ([1]; HCC1954 cell line, censored GI50 values, value is the negative log10 of mol/L): 5.90
- GI50 [1, 8]: 4.66
- GI50 ([1]; HCC3153 cell line, censored GI50 values, value is the negative log10 of mol/L): 5.59
- GI50 ([1]; MDAMB134VI cell line, censored GI50 values, value is the negative log10 of mol/L): 4.78
- GI50 ([1]; MDAMB175VII cell line, censored GI50 values, value is the negative log10 of mol/L): 5.02
- GI50 ([1]; MDAMB453 cell line, censored GI50 values, value is the negative log10 of mol/L): 6.12
- GI50 ([1]; MDAMB468 cell line, censored GI50 values, value is the negative log10 of mol/L): 4.37
- GI50 ([1]; SKBR3 cell line, censored GI50 values, value is the negative log10 of mol/L): 5.27
- GI50 [1, 9]: 4.86
- GI50 [1, 10]: 5.46
- GI50 ([1]; SUM1315MO2 cell line, censored GI50 values, value is the negative log10 of mol/L): 6.31
- GI50 [1, 11]: 5.72
- GI50 [1, 12]: 4.59
- GI50 [1, 13]: 5.97
- GI50 [1, 14]: 4.17
- GI50 [1, 15]: 5.94
- GI50 [1, 16]: 5.48
- GI50 [1, 17]: 5.32
- GI50 [1, 18]: 5.64
- GI50 [1, 19]: 4.21
- GI50 [1, 20]: 6.08
- GI50 [1, 21]: 6.21
- GI50 [1, 22]: 4.61
- GI50 [1, 23]: 5.31
- GI50 [1, 24]: 3.92
- GI50 [1, 25]: 3.88
- GI50 [1, 26]: 5.90
- GI50 [1, 27]: 4.66
- GI50 [1, 28]: 5.59

SMILES: C[C@]12O[C@H](C[C@]1(O)CO)n1c3ccccc3c3c4c(c5c6ccccc6n2c5c31)CNC4=O [Lestaurtinib]
- GI50 ([1]; Homo sapiens, 600MPE cell line, censored GI50 values): 1700 nM
- GI50 ([1]; Homo sapiens, AU565, AU565 cell line, censored GI50 values): 851 nM
- GI50 ([1]; Homo sapiens, AU565, cell line AU565): 851 nM
- GI50 ([1]; Homo sapiens, BT-20, BT20 cell line, censored GI50 values): 3240 nM
- GI50 ([1]; Homo sapiens, BT-20, cell line BT20): 3240 nM
- GI50 ([1]; Homo sapiens, BT-474, BT474 cell line, censored GI50 values): 245 nM
- GI50 ([1]; Homo sapiens, BT-474, cell line BT474): 245 nM
- GI50 ([1]; Homo sapiens, BT-483, BT483 cell line, censored GI50 values): 741 nM
- GI50 ([1]; Homo sapiens, BT-483, cell line BT483): 741 nM
- GI50 ([1]; Homo sapiens, CAMA-1, CAMA1 cell line, censored GI50 values): 2240 nM
- GI50 ([1]; Homo sapiens, CAMA-1, cell line CAMA1): 2240 nM
- GI50 ([1]; Homo sapiens, HCC38, cell line HCC38): 61.7 nM
- GI50 ([1]; Homo sapiens, HCC70, cell line HCC70): 182 nM
- GI50 ([1]; Homo sapiens, HCC1143, HCC1143 cell line, censored GI50 values): 331 nM
- GI50 ([1]; Homo sapiens, HCC1143, cell line HCC1143): 331 nM
- GI50 ([1]; Homo sapiens, HCC1187, HCC1187 cell line, censored GI50 values): 832 nM
- GI50 ([1]; Homo sapiens, HCC1187, cell line HCC1187): 832 nM
- GI50 ([1]; Homo sapiens, HCC1419, HCC1419 cell line, censored GI50 values): 1150 nM
- GI50 ([1]; Homo sapiens, HCC1419, cell line HCC1419): 1150 nM
- GI50 ([1]; Homo sapiens, HCC1428, HCC1428 cell line, censored GI50 values): 537 nM
- GI50 ([1]; Homo sapiens, HCC1428, cell line HCC1428): 537 nM
- GI50 ([1]; Homo sapiens, HCC1500, HCC1500 cell line, censored GI50 values): 158 nM
- GI50 ([1]; Homo sapiens, HCC1500, cell line HCC1500): 158 nM
- GI50 ([1]; Homo sapiens, HCC1806, HCC1806 cell line, censored GI50 values): 162 nM
- GI50 ([1]; Homo sapiens, HCC1806, cell line HCC1806): 162 nM
- GI50 ([1]; Homo sapiens, HCC1937, HCC1937 cell line, censored GI50 values): 617 nM
- GI50 ([1]; Homo sapiens, HCC1937, cell line HCC1937): 617 nM
- GI50 ([1]; Homo sapiens, HCC1954, HCC1954 cell line, censored GI50 values): 4900 nM
- GI50 ([1]; Homo sapiens, HCC1954, cell line HCC1954): 4900 nM
- GI50 ([1]; Homo sapiens, MCF7, cell line MCF7): 1410 nM
- GI50 ([1]; Homo sapiens, MDA-MB-361, cell line MDAMB361): 525 nM
- GI50 ([1]; Homo sapiens, MDA-MB-436, cell line MDAMB436): 1380 nM
- GI50 ([1]; Homo sapiens, MDA-MB-453, cell line MDAMB453): 661 nM
- GI50 ([1]; Homo sapiens, MDA-MB-468, cell line MDAMB468): 407 nM
- GI50 ([1]; Homo sapiens, SK-BR-3, cell line SKBR3): 1020 nM
- GI50 ([1]; Homo sapiens, SUM52PE, cell line SUM52PE): 138 nM
- GI50 ([1]; Homo sapiens, SUM149PT, cell line SUM149PT): 91.2 nM
- GI50 ([1]; Homo sapiens, SUM185PE, cell line SUM185PE): 63.1 nM
- GI50 ([1]; Homo sapiens, SUM225CWN, cell line SUM225CWN): 1000 nM
- GI50 ([1]; Homo sapiens, SUM-159-PT, cell line SUM159PT): 288 nM
- GI50 ([1]; Homo sapiens, T47D, cell line T47D): 5620 nM
- GI50 ([1]; Homo sapiens, UACC-812, cell line UACC812): 1050 nM
- GI50 ([1]; Homo sapiens, ZR-75-1, cell line ZR751): 1780 nM
- GI50 ([1]; Homo sapiens, ZR-75B, cell line ZR75B): 457 nM
- GI50 ([1]; Homo sapiens, cell line 600MPE): 1700 nM
- GI50 ([1]; Homo sapiens, cell line HCC2185): 3240 nM
- GI50 ([1]; Homo sapiens, cell line HCC3153): 7760 nM
- GI50 ([1]; Homo sapiens, cell line MDAMB134V): 363 nM
- GI50 ([1]; Homo sapiens, cell line MDAMB175V): 813 nM
- GI50 ([1]; Homo sapiens, cell line SUM1315MO): 37.2 nM
